Patent US10834886B2, “Switchgrass cultivar PanIR” (priority 2017, dated 2020)

Legend:
[1] = tested on: Alamo (Cycle0) lowland switchgrass; assay: Agar/growth chamber germination on water agar + imazapic; assay type: in vivo, Panicum virgatum; settings: controlled conditions
Source text: (§1) Since field emergence relies on soil tilth, rainfall, planter depth, and a host of other conditions, the inventors opted for a more uniform method of testing resistance: imazapic-dosed water agar. Data from germination under controlled conditions indicated significant progress for resistance to imazapic (Table 3) over three cycles of selection.

PanIR Cycle3 switchgrass = assay: as above; assay type: in vivo, Panicum virgatum; settings: 2.3 times higher rate, controlled conditions
Source text: as §1

[2] = tested on: Indiangrass (resistant check); assay: Field emergence: seedlings surviving imazapic application; assay type: in vivo, Sorghastrum nutans; settings: 14 oz/A
Description: (§2) Plants were seeded in July and August of 2014 and during May of 2015. Data presented in Table 4 indicates 2014 testing at three locations (Brooksville, Newton, and Starkville). At all locations, PanIR seedling numbers exceeded all other generations of selection as well as the resistant check (indiangrass).

[3] = tested on: Alamo (Cycle 0) switchgrass; assay: as above; assay type: in vivo, Panicum virgatum; settings: 14 oz/A
Description: as §2

Cycle 1 switchgrass = assay: as above; assay type: in vivo, Panicum virgatum; settings: 14 oz/A
Description: as §2

Cycle 2 switchgrass = assay: as above; assay type: in vivo, Panicum virgatum; settings: 14 oz/A
Description: as §2

[4] = tested on: PanIR (Cycle 3) switchgrass; assay: as above; assay type: in vivo, Panicum virgatum; settings: 14 oz/A
Description: as §2

Rapid Germ Switchgrass = assay: as above; assay type: in vivo, Panicum virgatum; settings: 14 oz/A
Description: as §2

[5] = tested on: Alamo switchgrass seedlings (Cycle0); assay: Herbicide screening of seedlings, Zero: First Generation Selection; assay type: in vivo, Panicum virgatum
Description: Selection for herbicide resistance was conducted using methods similar to the study performed by Bahler and others (1983). Heavy duty plastic and metal trays measuring 51.5 cm×36.5 cm were used to hold the germinating seedlings during growth and also allowed for easy maintenance and efficient application of herbicide. The testing was conducted in a greenhouse that maintained a nightly temperature of 20° C. and a daily temperature of 30° C. Before the autumnal equinox, day length was not supplemented for the experiment. After the equinox, light was extended to 16 hrs. Day length is a concern due to switchgrass' photoperiodic nature. Eight trays represent a replicate, which were repeated over time. Each tray was filled with autoclaved field soil approximately ¾ full. A 2.5 cm×30.5 cm piece of PVC pipe was used to form ten micro-furrows spaced at 5 cm within each tray. Nine of the ten rows were planted with approximately […] Alamo switchgrass seed (Sharp Brothers, Healy, Kans.). The remaining, randomly selected row was planted with 250 indiangrass seed (MSU 3rd cycle of selection for precocious germination). One hundred (100) seed were evenly dispersed within each furrow of the flat; flats were top-dressed with 0.63 cm of autoclaved field soil. The trays were watered on a daily basis. Emergence of the seedlings usually took place 6-8 days after planting. Once the seedlings broke the soil surface, they were allowed to grow to the three leaf stage (approximately 14 days). A calibrated spray chamber was used to apply the herbicide to the seedlings in the trays. For imazapic, the recommended rate is 140 g a.i./ha on mixed grassland, applied with less than 93.54 liters of water per hectare, sprayed at a constant pressure of 40 psi. A spray adjuvant (nonionic surfactant) was added to the formulation. In order to achieve the correct amounts for the spray mixture, the following calculations were made: (8 fl.oz./1 ac.)×(1 ac./15 gal.sol.)×(1 gal./128 fl.oz.sol.)×(20 f.oz.sol./1 bottle)×(3785 ml/128 fl.oz.)=2.46 ml/1 bottle H2O (3-1) The formulation requires 2.46 mls of Plateau®, 1.5 mls of surfactant, and 556 mls of water to fill the spray bottle for the chamber. The trays were placed two at a time in the chamber and sprayed at a fixed speed ([…]) to ensure proper dosage. A dose response curve was conducted on the sixth trial to determine the rate of Plateau® that would kill a majority of the switchgrass seedlings (Table 1).
The upper limit was 245 g a.i./ha, which exceeded the labeled rate for big bluestem and indiangrass. […] Eight trays represented the curve and were assessed on the amount of discoloration relative to the unsprayed tray. […]

[6] = tested on: Cycle1 switchgrass seedlings; assay: Herbicide screening of seedlings, First: Second Generation Selection; assay type: in vivo
Description: Subsequent testing of the first generation seed/seedlings was conducted in the same manner as the initial herbicide screenings. The planting of the trays consisted of 8 rows of the first generation, one row Alamo, and one row indiangrass (tolerant control).
Seedlings of Cycle1 (315,360) were screened for tolerance to 14 oz/A (2×) rate of Plateau®. Ninety-seven (97) survived the initial imazapic application. Sixty-eight (68) succumbed to a second (8 oz/A) application leaving twenty-nine (29) tolerant individuals which were planted in an isolated crossing block at Longview, Miss. (33.404999, −88.938283) as Cycle2.

[7] = tested on: switchgrass cultivars, Alamo and Kanlow; settings: pre-plant application; cited from earlier work
switchgrass stands = settings: in vivo; cited from earlier work

Question: Which “resistance as percentage of the population” value [1] does the source give for `Cc1cnc(C2=NC(C)(C(C)C)C(=O)N2)c(C(=O)O)c1` (stereo not shown) [imazapic, 5-methyl-2-[4-methyl-5-oxo-4-(propan-2-yl)-4,5-dihydro-1H-imidazol-2-yl]pyridine-3-carboxylic acid] here?
Answer: approximately 3%

Question: And the “resistance as percentage of the population” value (PanIR Cycle3 switchgrass)?
Answer: about 93.6%

Question: What about the “Number of seedlings surviving, 42 days after spraying” value (“Number of seedlings surviving” for short) ([2]; Brooksville 2014) of the same compound?
Answer: 16.25^†B* seedlings emerged per 30 cm of row

Question: And the “Number of seedlings surviving” value ([2]; Brooksville 2015)?
Answer: 24.50^†B* seedlings emerged per 30 cm of row

Question: What about the “Number of seedlings surviving” value ([2]; Newton 2014) of the same compound?
Answer: 14.50 B seedlings emerged per 30 cm of row

Question: And the “Number of seedlings surviving” value ([2]; Starkville 2014)?
Answer: 19.75 B seedlings emerged per 30 cm of row

Question: What about the “Number of seedlings surviving” value ([2]; Starkville 2015) of the same compound?
Answer: 13.33 B seedlings emerged per 30 cm of row

Question: And the “Number of seedlings surviving” value ([3]; Brooksville 2014)?
Answer: 2.00 B seedlings emerged per 30 cm of row

Question: What about the “Number of seedlings surviving” value ([3]; Brooksville 2015) of the same compound?
Answer: 5.75 BC seedlings emerged per 30 cm of row

Question: And the “Number of seedlings surviving” value ([3]; Newton 2014)?
Answer: 6.50 B seedlings emerged per 30 cm of row

Question: What about the “Number of seedlings surviving” value ([3]; Starkville 2014) of the same compound?
Answer: 8.25 BC seedlings emerged per 30 cm of row

Question: And the “Number of seedlings surviving” value ([3]; Starkville 2015)?
Answer: 1.00 B seedlings emerged per 30 cm of row

Question: What about the “Number of seedlings surviving” value (Cycle 1 switchgrass; Brooksville 2014) of the same compound?
Answer: 8.25 B seedlings emerged per 30 cm of row

Question: And the “Number of seedlings surviving” value (Cycle 1 switchgrass; Brooksville 2015)?
Answer: 19.25 BC seedlings emerged per 30 cm of row

Question: And the “Number of seedlings surviving” value (Cycle 1 switchgrass; Newton 2014)?
Answer: 10.25 B seedlings emerged per 30 cm of row

Question: What about the “Number of seedlings surviving” value (Cycle 1 switchgrass; Starkville 2014) of the same compound?
Answer: 3.25 C seedlings emerged per 30 cm of row

Question: What about the “Number of seedlings surviving” value (Cycle 1 switchgrass; Starkville 2015) of the same compound?
Answer: 2.00 B seedlings emerged per 30 cm of row

Question: What about the “Number of seedlings surviving” value (Cycle 2 switchgrass; Brooksville 2014) of the same compound?
Answer: 14.25 B seedlings emerged per 30 cm of row

Question: And the “Number of seedlings surviving” value (Cycle 2 switchgrass; Brooksville 2015)?
Answer: 18.75 BC seedlings emerged per 30 cm of row

Question: What about the “Number of seedlings surviving” value (Cycle 2 switchgrass; Newton 2014) of the same compound?
Answer: 13.00 B seedlings emerged per 30 cm of row

Question: And the “Number of seedlings surviving” value (Cycle 2 switchgrass; Starkville 2014)?
Answer: 13.75 BC seedlings emerged per 30 cm of row

Question: What about the “Number of seedlings surviving” value (Cycle 2 switchgrass; Starkville 2015) of the same compound?
Answer: 5.67 B seedlings emerged per 30 cm of row

Question: What about the “Number of seedlings surviving” value ([4]; Brooksville 2014) of the same compound?
Answer: 53.00 A seedlings emerged per 30 cm of row

Question: And the “Number of seedlings surviving” value ([4]; Brooksville 2015)?
Answer: 115.75 A seedlings emerged per 30 cm of row

Question: What about the “Number of seedlings surviving” value ([4]; Newton 2014) of the same compound?
Answer: 43.00 A seedlings emerged per 30 cm of row

Question: And the “Number of seedlings surviving” value ([4]; Starkville 2014)?
Answer: 49.50 A seedlings emerged per 30 cm of row

Question: And the “Number of seedlings surviving” value ([4]; Starkville 2015)?
Answer: 16.00 A seedlings emerged per 30 cm of row

Question: And the “Number of seedlings surviving” value (Rapid Germ Switchgrass; Brooksville 2014)?
Answer: 2.75 B seedlings emerged per 30 cm of row

Question: And the “Number of seedlings surviving” value (Rapid Germ Switchgrass; Brooksville 2015)?
Answer: 0.00 C seedlings emerged per 30 cm of row

Question: And the “Number of seedlings surviving” value (Rapid Germ Switchgrass; Newton 2014)?
Answer: 2.00 B seedlings emerged per 30 cm of row

Question: What about the “Number of seedlings surviving” value (Rapid Germ Switchgrass; Starkville 2014) of the same compound?
Answer: 2.00 C seedlings emerged per 30 cm of row

Question: What about the “Number of seedlings surviving” value (Rapid Germ Switchgrass; Starkville 2015) of the same compound?
Answer: 1.00 B seedlings emerged per 30 cm of row

Question: What about the selection intensity ([5]; 364,650 seedlings, 63 survivors, 245 g a.i./ha) of the same compound?
Answer: 0.0172%

Question: And the selection intensity ([5]; Cycle0 (Alamo): 63 individuals selected out of 306,000 seedlings)?
Answer: 0.0205%

Question: And the “individuals surviving the initial screening” value ([5]; approximately 364,650 Alamo individuals screened, 8 oz/A)?
Answer: 78 individuals

Question: What about the “individuals remaining in base population after second screening” value ([5]; the 78 survivors exposed to one-time application of 14 oz/A) of the same compound?
Answer: 63 individuals

Question: What about the selection intensity ([6]; Cycle1: 29 seedlings selected out of 36,441 seedlings) of the same compound?
Answer: 0.0795%

Question: What about the mortality rate ([6]; seedlings produced from the first cycle polycross of selection) of the same compound?
Answer: greater than 75%

Question: For `CCC(CC)Nc1c([N+](=O)[O-])cc(C)c(C)c1[N+](=O)[O-]` [Pendimethalin, pendimethalin], which mortality of stands [7] is on record?
Answer: up to 50%

Question: With `CCNc1nc(Cl)nc(NC(C)C)n1` [atrazine] as the compound, how does the “effect on switchgrass stands” value (switchgrass stands) read?
Answer: no deleterious effects
